Tests used:
PLK-1 = PLK-1 (Caenorhabditis elegans, UniProt P34331); assay: in vitro radiometric kinase assay ([γ-32P]ATP, GST-LMN-1 head substrate); format: biochemical
LET-23 = LET-23 (Caenorhabditis elegans, UniProt P24348); assay: continuous enzyme-coupled kinase assay on lipid vesicles, percent inhibition; format: biochemical
Chain of LET-23 (P24348 866-1191): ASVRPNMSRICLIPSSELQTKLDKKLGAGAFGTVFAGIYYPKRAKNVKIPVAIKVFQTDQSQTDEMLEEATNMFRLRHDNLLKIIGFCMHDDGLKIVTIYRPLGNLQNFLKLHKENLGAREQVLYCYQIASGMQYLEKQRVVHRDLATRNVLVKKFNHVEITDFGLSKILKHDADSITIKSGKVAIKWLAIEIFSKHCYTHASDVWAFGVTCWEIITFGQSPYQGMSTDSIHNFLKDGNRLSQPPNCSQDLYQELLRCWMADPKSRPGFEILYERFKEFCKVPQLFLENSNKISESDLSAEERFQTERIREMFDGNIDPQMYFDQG

Chain of PLK-1 (P34331 whole entry): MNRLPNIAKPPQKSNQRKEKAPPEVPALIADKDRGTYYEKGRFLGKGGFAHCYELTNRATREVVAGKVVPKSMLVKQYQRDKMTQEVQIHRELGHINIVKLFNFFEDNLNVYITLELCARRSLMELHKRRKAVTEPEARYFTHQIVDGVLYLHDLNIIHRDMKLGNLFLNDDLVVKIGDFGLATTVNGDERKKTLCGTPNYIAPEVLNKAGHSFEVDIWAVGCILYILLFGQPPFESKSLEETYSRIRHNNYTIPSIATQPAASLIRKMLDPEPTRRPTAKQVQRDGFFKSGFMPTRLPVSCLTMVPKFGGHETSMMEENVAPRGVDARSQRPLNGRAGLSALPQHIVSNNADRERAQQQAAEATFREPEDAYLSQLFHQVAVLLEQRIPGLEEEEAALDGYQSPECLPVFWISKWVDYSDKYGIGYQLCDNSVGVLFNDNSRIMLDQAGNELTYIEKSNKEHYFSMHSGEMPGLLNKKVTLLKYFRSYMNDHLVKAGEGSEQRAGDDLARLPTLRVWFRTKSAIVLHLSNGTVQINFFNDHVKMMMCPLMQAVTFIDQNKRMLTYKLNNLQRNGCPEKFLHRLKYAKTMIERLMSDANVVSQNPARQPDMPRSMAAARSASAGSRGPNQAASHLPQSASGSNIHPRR

Structure (SMILES) | IC50 (PLK-1) [nM] | continuous enzyme-coupled kinase assay on lipid vesicles, percent inhibition (LET-23)
C[C@@H](Oc1cc(-n2cnc3ccc(-c4ccncc4)cc32)sc1C(N)=O)c1ccccc1Cl [GSK483724A] | 91 | –
C[C@@H](Oc1cc(-n2cnc3cc(-c4ccncc4)ccc32)sc1C(N)=O)c1ccccc1Cl [GSK479719A] | 39 | –
CS(=O)(=O)CCNCc1ccc(-c2ccc3ncnc(Nc4ccc(OCc5cccc(F)c5)c(C(F)(F)F)c4)c3c2)o1 [GW576484X] | – | The ATOP and 4AQ scaffold compounds tested were able to inhibit LET-23 kinase activity
[O-][S+]1CCN(Cc2ccc(-c3ccc4ncnc(Nc5ccc(OCc6ccccc6)c(Cl)c5)c4c3)o2)CC1 [GW583373A] | – | The ATOP and 4AQ scaffold compounds tested were able to inhibit LET-23 kinase activity

Source: article PMC8080662 (Scientific Reports, 2021)
